Data as given in patent US20230047788A1, “COMPOSITIONS COMPRISING 5-CHOLESTEN-3, 25-DIOL, 3-SULFATE (25HC3S) OR PHARMACEUTICALLY ACCEPTABLE SALT THEREOF AND AT LEAST ONE CYCLIC OLIGOSACCHARIDE” (Virginia Commonwealth University, priority 2016, published 2023).

Columns and labels:
[1] = system: GI-ARS model (partial shielding irradiation); test: Clinical signs and survival in rodent model of gastrointestinal acute radiation syndrome (GI-ARS); format: in vivo, C57BL/6J mice
Method: The subjects for the two studies outlined here were (A) Study 1: 20 male C57BL/6J mice (8 weeks of age; 23-28 g) and (B) Study 2: 16 male C57BL/6J mice (8 weeks of age; 23-28 g). Following arrival, all animals were subjected to a health assessment and evaluation was performed in accordance with the standard operating procedures and by technical staff working under the supervision of the clinical veterinarian. An acclimation period of at least 11 days was allowed between receipt of the animals and irradiation to accustom the animals to the laboratory environment.
A solution formulation of 25HC3S sodium salt and its respective vehicle was used for the study. The Vehicle was a solution of 4% (w/v) hydroxypropyl betadex in 75% (v/v) of 0.9% (w/v) sodium chloride and 25% (v/v) sterile water. 25HC3S sodium salt was pre-dissolved into the Vehicle solution to result in a drug concentration of 5 mg/mL. The 25HC3S solution was ready-to-use at the start of dosing. In Study 1, the vehicle was stored at 2-8° C. whereas the 25HC3S solution was stored at room temperature prior and throughout the study duration; in Study 2, both vehicle and 25HC3S solutions were stored at 2-8° C.
Partial shielding irradiation (PSI) exposure at a high radiation dose (>10Gy) is an established approach to mimic GI-ARS in mice. Animals were exposed to whole-body irradiation with partial shielding (Day 0) in a custom designed restrainer where their left pelvic limb was extended and maintained in position with an elastic band. The left pelvic limb was shielded with a cerrobend structure. Animals received a whole body irradiation dose with partial shielding of 15.78 Gy (LD50/22) for Study 1 whereas mice were exposed to 15.16 Gy (LD25/22) in Study 2. The dose rate of the ^60Co gamma source was fixed at approximately 60 cGy per minute. The in-life portion of both the studies after PSI was 22 days.
Study 1: Mice (N=20/group) were administered once daily with 25HC3S (or vehicle) for 7 consecutive days starting on the day following irradiation (Day 1) by subcutaneous injection between scapulas using a 27G needle attached to a syringe. The dose volume was 10 mL/kg for all dose routes and the dose was adjusted based on the most recent body weight. Study 2: Mice (N=16/group) were administered with 25HC3S (or vehicle) for a total of […]. Animals were given drug (or vehicle) once on the day following irradiation (Day 1) and once on Day 4 by subcutaneous injection between scapulas using a 27G needle attached to a syringe. The dose volume was 10 mL/kg for all dose routes and the dose was adjusted based on the most recent body weight.
Mortality checks were recorded concomitantly with the cage-side observations, during all phases of the study. Mortality checks for all animals were also recorded at least once during the night from Day 5 through Day 8. Clinical signs (ill health, behavioral changes, fur color/consistency changes etc.) were also recorded on all surviving animals twice daily throughout observation period (described in Table 10). Additional clinical observations were performed when deemed necessary. All observations were recorded as cage side clinical signs or detailed clinical examination when possible. A detailed clinical examination was performed on each animal at least as follows: prior to animal assignment, one day prior to irradiation (Day −1) then every 3 days throughout the observation period. […]

[2] = system: hepatic apoptosis-related genes; test: Hepatic gene expression by RT2 Profiler PCR Array in APAP overdosed mice; format: in vivo, C57BL/6J mice; details: liver, APAP 350 mg/kg mice, 24 h
Method: A composition comprising 25 mg/kg of 25HC3S sodium salt in vehicle was administered intravenously to the experimental mice 0.5 hours after APAP administration. Mortality was monitored in the high dose mice. In the low dose mice, the liver function markers aspartate aminotransferase (AST), alanine aminotransferase (ALT), alkaline phosphatase (ALK) and lactate dehydrogenase (LDH), were measured in serum. Impacts on gene expression were determined by Quantitative Real-time PCR. Membrane potentials were measured using JC1 staining and flow cytometry.
Changes in gene regulation in low dose mice 24 hours after the administration of vehicle and vehicle plus 25HC3S were investigated. The 12-week-old male C57BL/6J mice had received 350 mg/kg APAP via intraperitoneal injection and 30 min later received 7.6% glucose/H2O (C) or vehicle (20% PG/4% HCD/7.6% glucose, P) or 25HC3S (3S). Twenty four hours following APAP injection, liver tissue was harvested and total mRNA was extracted and analyzed using an RT^2 Profiler™ PCR Array assay. The listed genes are involved in apoptosis and/or immune system regulation.

For `C[C@H](CCCC(C)(C)O)[C@H]1CC[C@H]2[C@@H]3CC=C4C[C@@H](OS(=O)(=O)[O-])CC[C@]4(C)[C@H]3CC[C@]12C.[Na+]` [25HC3S, 5-cholesten-3, 25-diol, 3-sulfate], the Survival ([1]; Study 1, 15.78 Gy, by Day 7) was 45%, the “mortality, treatment vs vehicle group” value ([1]; Study 1, 15.78 Gy, sc once daily for 7 days from Day 1) was “not significant” and the “average number of clinical signs/mice vs vehicle-treated group” value ([1]; Study 1, Days 5-22, animals that survived the entire in-life portion) was “statistically lower”. For the same molecule, the “Survival improved by (vs vehicle)” value ([1]; Study 2, 15.16 Gy) was 18.75%, the Survival ([1]; Study 2, 15.16 Gy, sc doses on Day 1 and Day 4, 50 mg/kg/dose) was 81.25% and the “Cd40 (NM_011611) gene expression, Fold vs P” value ([2]; vs P (vehicle) group) was −2.7 Fold. The “Fasl (NM_010177) gene expression, Fold vs P” value ([2]; vs P (vehicle) group) was −2.6 Fold, the “Gadd45a (NM_007836) gene expression, Fold vs P” value ([2]; vs P (vehicle) group) was −10.9 Fold and the “Nol3 (NM_030152) gene expression, Fold vs P” value ([2]; vs P (vehicle) group) was 3.6 Fold. For the same molecule, the “Pvr (NM_027514) gene expression, Fold vs P” value ([2]; vs P (vehicle) group) was −3.3 Fold, the “Tnf (NM_013693) gene expression, Fold vs P” value ([2]; vs P (vehicle) group) was −2.4 Fold and the “Apaf1 (NM_009741) gene expression, Fold vs C” value ([2]; vs control (C) group) was −2.2 Fold. For the same molecule, the “Cd40 (NM_011611) gene expression, Fold vs C” value ([2]; vs control (C) group) was −2.1 Fold, the “Fasl (NM_010177) gene expression, Fold vs C” value ([2]; vs control (C) group) was −2.1 Fold and the “Gadd45a (NM_007836) gene expression, Fold vs C” value ([2]; vs control (C) group) was −9.3 Fold. The “Nol3 (NM_030152) gene expression, Fold vs C” value ([2]; vs control (C) group) was 5.3 Fold, the “Pvr (NM_027514) gene expression, Fold vs C” value ([2]; vs control (C) group) was −3.9 Fold and the “Tnfrsf11b (NM_008764) gene expression, Fold vs C” value ([2]; vs control (C) group) was −2.9 Fold.
